Test [1] addresses T1, murine ATGL (Mus musculus, UniProt Q8BJ56).
T1 construct: made in house; host or cells: Expi cells (lysate)
T1 sequence (Q8BJ56 1-486): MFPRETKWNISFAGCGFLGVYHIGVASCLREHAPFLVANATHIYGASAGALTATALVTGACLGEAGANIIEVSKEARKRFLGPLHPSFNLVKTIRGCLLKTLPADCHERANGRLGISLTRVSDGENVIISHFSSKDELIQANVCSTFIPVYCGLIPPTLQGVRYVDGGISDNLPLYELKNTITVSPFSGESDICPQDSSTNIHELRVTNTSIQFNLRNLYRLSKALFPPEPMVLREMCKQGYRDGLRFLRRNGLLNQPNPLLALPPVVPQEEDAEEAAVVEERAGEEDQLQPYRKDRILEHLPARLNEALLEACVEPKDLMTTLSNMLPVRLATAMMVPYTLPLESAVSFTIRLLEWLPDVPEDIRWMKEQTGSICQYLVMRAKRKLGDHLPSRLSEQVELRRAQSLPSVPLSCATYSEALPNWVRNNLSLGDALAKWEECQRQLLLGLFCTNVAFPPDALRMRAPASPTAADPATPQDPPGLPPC
Description: TG hydrolase activity, Expi lysates expressing mouse ATGL + CGI-58, radiolabelled triolein. Type of test: biochemical. The protocol: (§1) Triglyceride (TG) hydrolase activity was measured as previously described (Schweiger M et al., Methods in Enzymology, 2014, 538:171-93). In brief, TG hydrolase activity was determined by adding recombinant purified CGI-58 to Expi cell lysates expressing human ATGL. For determination of cross-species reactivity Expi lysates expressing ATGL from different model organisms (e.g. mouse, rat, rhesus monkey, goat, etc.) were used. Samples were incubated with DMSO (carrier) or increasing concentrations of ATGL inhibitors dissolved in DMSO. TG substrate was prepared by emulsifying 330 μM radiolabelled triolein (40,000 c.p.m./nmol) and 45 μM phosphatidylcholine/phosphatidylinositol (3:1) in 100 mM potassium phosphate buffer (pH 7.0) by sonication and adjusting to 5% essentially FA-free BSA. TG substrate was added to the reaction mixture and incubated for 1 h at 37° C. in the water bath. The reaction was terminated by adding methanol/chloroform/heptane (10:9:7) and 0.1 M potassium carbonate with 0.1 M boric acid (pH 10.5). After centrifugation at 800 g for 15 min the radioactivity in the upper phase was determined by liquid scintillation counting and the rate of FA hydrolysis was calculated. IC50 values were determined as inhibitor concentration capable of inhibiting TG hydrolase activity by 50% as compared to DMSO control. Samples were measured as duplicates. The determination of IC50 values for human ATGL is illustrated in FIG. 1.
Lysates from Expi cells overexpressing ATGL from mouse (Mus musculus) were incubated with recombinant purified ATGL co-activator CGI-58 and ATGL inhibitors at 50 μM. Subsequently, substrate containing radiolabeled triolein was added and liberated FA were extracted and quantified by liquid scintillation. Inhibitors were dissolved in DMSO which was used as control. Samples were measured in triplicates.

Test [2] addresses T2, human ATGL (Homo sapiens, UniProt Q96AD5).
T2 construct: made in house; host or cells: Expi cells (lysate, not purified)
T2 sequence (Q96AD5 1-504): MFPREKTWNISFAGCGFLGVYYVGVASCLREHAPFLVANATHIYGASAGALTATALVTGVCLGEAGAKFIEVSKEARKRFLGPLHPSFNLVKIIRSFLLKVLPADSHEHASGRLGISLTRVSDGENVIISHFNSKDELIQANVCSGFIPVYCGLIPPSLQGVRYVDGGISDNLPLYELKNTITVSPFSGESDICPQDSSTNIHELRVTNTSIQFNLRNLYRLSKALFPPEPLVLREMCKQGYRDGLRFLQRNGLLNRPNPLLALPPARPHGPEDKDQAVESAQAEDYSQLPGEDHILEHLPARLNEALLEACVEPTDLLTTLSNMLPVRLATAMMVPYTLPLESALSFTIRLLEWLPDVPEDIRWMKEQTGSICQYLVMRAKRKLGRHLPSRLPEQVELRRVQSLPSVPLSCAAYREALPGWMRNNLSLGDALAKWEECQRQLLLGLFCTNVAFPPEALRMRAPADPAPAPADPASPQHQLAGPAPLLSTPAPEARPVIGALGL
Nature of the test: TG hydrolase activity, Expi cell lysates expressing human ATGL + CGI-58, radiolabelled triolein. Type of test: biochemical. To be noted: Example 237; read-out: Inhibition of human ATGL − IC50. The procedure:
as §1

Where [3] appears, read: 50 μM compound, Example 237, read-out: Inhibition of murine ATGL at 50 μM − mean [%].

Where two headings read alike, the source gives them in different places.

For orientation: inhibition means the relative decrease from the control value, in per cent. What is called IC50 is the point on the concentration scale where inhibition reaches its midpoint.

For the compound `CCOC(=O)c1csc(-c2ccc(OCC(C)C)cc2)n1` [Example 104, Ethyl 2-(4-isobutoxyphenyl)thiazole-4-carboxylate], the inhibition at 50 µM in test [1] (setting [3]) worked out at 0%. In addition, the half-inhibitory concentration (IC50) in test [2] stood at 12 µM.
Consider `CCOC(=O)c1csc(-c2ccc(OC(C)C)cc2)n1` [Example 106, Ethyl 2-(4-isopropoxyphenyl)thiazole-4-carboxylate], for which the inhibition at 50 µM in test [1] (setting [3]) worked out at 21.6%. Moreover, the IC50 in test [2] turned out to be 5 µM.
With `CCOC(=O)c1csc(-c2ccc(OCC(F)(F)F)cc2)n1` [Example 108, Ethyl 2-(4-(2,2,2-trifluoroethoxy)phenyl)thiazole-4-carboxylate], the inhibition at 50 µM in test [1] (setting [3]) is 8%. The half-inhibitory concentration (IC50) in test [2] came to 5 µM.
On to `CCCCOc1ccc(-c2nc(C(=O)OCC)cs2)cc1` [Example 109, Ethyl 2-(4-butoxyphenyl)thiazole-4-carboxylate], for which the inhibition at 50 µM in test [1] (setting [3]) stood at 0%. In addition, the 50% inhibitory concentration (IC50) in test [2] came to 10 µM.
With `CCCCCOc1ccc(-c2nc(C(=O)OCC)cs2)cc1` [Example 110, Ethyl 2-(4-(pentyloxy)phenyl)thiazole-4-carboxylate], the inhibition at 50 µM in test [1] (setting [3]) came to 0%. Further, the IC50 in test [2] was 25 µM.
The matching figures for `CCCCCCOc1ccc(-c2nc(C(=O)OCC)cs2)cc1` [Example 111, Ethyl 2-(4-(hexyloxy)phenyl)thiazole-4-carboxylate]: 0% and 25 µM.
On to `CCOC(=O)c1csc(-c2ccc(OC(C)CC)cc2)n1` (stereo not shown) [Example 112, Ethyl 2-(4-(sec-butoxy)phenyl)thiazole-4-carboxylate], for which the inhibition at 50 µM in test [1] (setting [3]) was 1.3%. Also, the half-maximal inhibitory concentration (IC50) in test [2] worked out at 10 µM.
For `C=CCOc1ccc(-c2nc(C(=O)OCC)cs2)cc1` [Example 113, Ethyl 2-(4-(allyloxy)phenyl)thiazole-4-carboxylate], the inhibition at 50 µM in test [1] (setting [3]) came out at 24.6%. Further, in test [2], the IC50 turned out to be 6 µM.
For `CCOc1ccc(-c2nc(C(=O)OC(C)CC)cs2)cc1` (stereo not shown) [Example 114, sec-Butyl 2-(4-ethoxyphenyl)thiazole-4-carboxylate], the inhibition at 50 µM in test [1] (setting [3]) worked out at 7%. In addition, the IC50 in test [2] turned out to be 3 µM.
Take `CCOc1ccc(-c2nc(C(=O)OCC(F)(F)F)cs2)cc1` [Example 116, 2,2,2-Trifluoroethyl 2-(4-ethoxyphenyl)thiazole-4-carboxylate]: the inhibition at 50 µM in test [1] (setting [3]) came out at 0%. The IC50 in test [2] turned out to be 12 µM.
In the case of `CCCC(C)OC(=O)c1csc(-c2ccc(OCC)cc2)n1` (stereo not shown) [Example 117, Pentan-2-yl 2-(4-ethoxyphenyl)thiazole-4-carboxylate], in test [1] (setting [3]), the inhibition at 50 µM came to 7.4%. In test [2], the IC50 stood at 3 µM.
The matching figures for `CCOc1ccc(-c2nc(C(=O)OC(C)(C)CC)cs2)cc1` [Example 118, tert-Pentyl 2-(4-ethoxyphenyl)thiazole-4-carboxylate]: 0% and 25 µM.
The matching figures for `C/C=C/COC(=O)c1csc(-c2ccc(OCC)cc2)n1` [Example 121, (E)-but-2-en-1-yl 2-(4-ethoxyphenyl)thiazole-4-carboxylate]: 41.2% and 12 µM.
In the case of `CCOc1ccc(-c2nc(C(=O)OC)cs2)cc1` [Example 122, Methyl 2-(4-ethoxyphenyl) thiazole-4-carboxylate], in test [1] (setting [3]), the inhibition at 50 µM is 2.1%. The IC50 in test [2] was 8 µM.
Regarding `CCOc1ccc(-c2nc(C(=O)OC(C)C)cs2)cc1` [Example 123, Isopropyl 2-(4-ethoxyphenyl) thiazole-4-carboxylate], the inhibition at 50 µM in test [1] (setting [3]) came to 10.6%; in test [1] (50 μM, overview table, read-out: mouse ATGL inhibition [% inhibition at 50 μM]), 20%. The IC50 in test [2] stood at 3 µM.
In the case of `CCOC(=O)c1nc(-c2ccc(OCC)cc2)sc1C` [Example 124, Ethyl 2-(4-ethoxyphenyl)-5-methylthiazole-4-carboxylate], the inhibition at 50 µM in test [1] (setting [3]) came to 33.7%. In addition, in test [2], the IC50 was 17 µM.
As for `CCOC(=O)c1nc(-c2ccc(OCC)cc2)sc1Cl` [Example 125, Ethyl 5-chloro-2-(4-ethoxyphenyl)thiazole-4-carboxylate], the inhibition at 50 µM in test [1] (setting [3]) was determined as 11.1%. In addition, the IC50 in test [2] came to 25 µM.
The matching figures for `CCOC(=O)c1nc(-c2ccc(OCC)cc2)sc1OC` [Example 126, Ethyl 2-(4-ethoxyphenyl)-5-methoxythiazole-4-carboxylate]: 2.2% and 5 µM.
`CCOc1ccc(-c2nc(C(=O)OC3CCCC3)cs2)cc1` [Example 127, Cyclopentyl 2-(4-ethoxyphenyl)thiazole-4-carboxylate]: the inhibition at 50 µM in test [1] (setting [3]) amounted to 0%. Besides, the IC50 in test [2] is 5 µM.
With `CCOc1ccc(-c2nc(C(=O)OC3CCC3)cs2)cc1` [Example 129, Cyclobutyl 2-(4-ethoxyphenyl)thiazole-4-carboxylate], the inhibition at 50 µM in test [1] (setting [3]) is 5.1%. The IC50 in test [2] was found to be 6 µM.
For the compound `CCOc1ccc(-c2nc(C(=O)OC3CCOC3)cs2)cc1` (stereo not shown) [Example 130, Tetrahydrofuran-3-yl 2-(4-ethoxyphenyl)thiazole-4-carboxylate], the inhibition at 50 µM in test [1] (setting [3]) stood at 13.9%. Besides, in test [2], the IC50 is 3 µM.
Take `CCOc1ccc(-c2nc(C(=O)OC3CCCCC3)cs2)cc1` [Example 133, Cyclohexyl 2-(4-ethoxyphenyl)thiazole-4-carboxylate]: the inhibition at 50 µM in test [1] (setting [3]) is 0%. In test [2], the IC50 worked out at 25 µM.
For `CCOc1ccc(-c2nc(C(=O)OC(CF)CF)cs2)cc1` [Example 135, 1,3-Difluoropropan-2-yl 2-(4-ethoxyphenyl)thiazole-4-carboxylate] the same measures were 5.8% and 3 µM.
For `CCOc1ccc(-c2nc(C(=O)OCC3CC3)cs2)cc1` [Example 136, Cyclopropylmethyl 2-(4-ethoxyphenyl)thiazole-4-carboxylate] the same measures were 9.8% and 20 µM.
For `CCOc1ccc(-c2nc(C(=O)O[C@H]3CCC[C@H]3C)cs2)cc1` [Example 139, (1S,2R)-2-Methylcyclopentyl 2-(4-ethoxyphenyl)thiazole-4-carboxylate] the same measures were 0% and 15 µM.
Turning to `CCOc1ccc(-c2nc(C(=O)OCC=C(C)C)cs2)cc1` [Example 143, 3-Methylbut-2-en-1-yl 2-(4-ethoxyphenyl)thiazole-4-carboxylate], in test [1] (setting [3]), the inhibition at 50 µM was 16.8%. Further, in test [2], the half-maximal inhibitory concentration (IC50) was determined as 20 µM.
The matching figures for `C=CCOC(=O)c1csc(-c2ccc(OCC)cc2)n1` [Example 147, Allyl 2-(4-ethoxyphenyl)thiazole-4-carboxylate]: 30% and 3 µM.
As to `CCOc1ccc(-c2nc(C(=O)OC(C)(C)C)cs2)cc1` [Example 150, tert-Butyl 2-(4-ethoxyphenyl)thiazole-4-carboxylate], in test [1] (setting [3]), the inhibition at 50 µM came to 6.3%. Further, in test [2], the IC50 is 5 µM.
With `CCOc1ccc(-c2nc(C(=O)OC3CC3)cs2)cc1` [Example 151, Cyclopropyl 2-(4-ethoxyphenyl)thiazole-4-carboxylate], the inhibition at 50 µM in test [1] (setting [3]) was 12.1%. The 50% inhibitory concentration (IC50) in test [2] is 2.5 µM.
For `CCOc1ccc(-c2nc(C(=O)OCc3ccco3)cs2)cc1` [Example 153, Furan-2-ylmethyl 2-(4-ethoxyphenyl)thiazole-4-carboxylate] the same measures were 42.2% and 5 µM.

For the origin of these results see patent US20220289698A1, “INHIBITORS OF HUMAN ATGL” (Karl-Franzens-Universität Graz, priority 2019, published 2022).
